Assays:
Hex and Isl-1 expression = assay: In situ hybridization of Hex and Isl-1 in avian embryos after EtOH exposure with or without FA; assay type: in vivo, avian (chick); conditions: 30% EtOH; HH stage 4; 8 hour incubation
C57BL/6 mouse embryos [1] = assay: Morphometric parameters and resorptions of E15.5 mouse embryos with ethanol exposure and FA diet; assay type: in vivo
Description: The C57Bl/6 mouse strain (Jackson Laboratories) was used.

C57BL/6 mouse embryos [2] = conditions: in vivo
chick embryos = assay: Early embryonic chick culture: heart development (MF20) after HCy, Li or Wnt3A exposure, FA/inositol rescue; assay type: in vivo, chick (Gallus gallus)
Procedure: Pathogen-free White Leghorn chick (Gallus gallus; Charles River, Mass.) and quail (Coturnix coturnix japonica; Strickland Farms, Ga.) embryos were used to analyze the effects of HCy on early embryogenesis. The early processes of heart development are well conserved among vertebrates and the avian model allows for more precise timing of exposure in early embryos. The incubation methodology using agarose-albumin has been described previously (Darnell and Schoenwolf, 2000). Briefly, the experimental paradigm involved exposing specific early stages of chick embryos, at HH stages 4 to 7 (Hamburger and Hamilton, 1951), to different concentrations of HCy (L-homocysteine thiolactone hydrochloride, Sigma) made up in physiological saline. Final concentrations of HCy included 30 μM, 50 μM, 75 μM and 100 μM. The minimal teratogenic dose was determined empirically to be 50 μM. This fit within the concentration range of 30 μM to 300 μM used by others that induced heart defects at later stages of development (Boot et al., 2004). Control embryos were incubated using the vehicle, physiological saline, in the agarose-albumin medium. Control and experimental cultures were incubated on the agarose-albumin plates for either 8 or 24 hours.
Carrier-free, recombinant mouse Wnt3A was purchased from R&D Systems (Minneapolis, Minn.). Wnt3A concentrations were empirically tested to find those that would induce cardiac defects but maintain embryonic viability. Wnt3A was tested at concentrations of 2 ng, 10 ng, 20 ng, 50 ng and 100 ng per ml. Concentrations of 2 ng/ml and 10 ng/ml were both effective in inducing cardiac defects. Both Wnt3A concentrations were used in the FA rescue experiments, as described. For the FA rescue experiments, folate (folic acid, Sigma-Aldrich) was added at a concentration of 2 μg, 5 μg or 10 μg per ml. […] For the experiments using inositol (myo-inositol, Sigma) supplementation, a concentration of 50 mg/ml was used.
The main embryonic defects related to the timing of embryonic exposure; the regions that were primarily affected related to an anterior-to posterior (AP) wave of development along this embryonic axis. The exposure effects ranged from early effects (e.g. no cardiac tissue, heart development occurring anterior to neural tissue, cardiabifida) to later effects, such as wide hearts and left looping (Table 1). The cardiac phenotypes observed with early HCy exposure were similar, although not identical, to those obtained from previous studies of Li exposure on avian heart development (Manisastry et al., 2006). The Wnt/β-catenin modulated genes Hex and Isl1 in the chick embryo also were similarly repressed with HCy, as with Li in the chick cardiogenic region. […] Investigation of regulatory gene activity in chick embryos indicates Li, HCy and Wnt3A suppress Wnt-modulated genes Hex and Islet-1 in the heart fields.
To define the effective dose of Wnt3A needed to induce cardiac dysmorphogenesis, Wnt3A was tested at concentrations of 2 ng, 10 ng, 20 ng, 50 ng, and 100 ng per ml. The minimal effective doses of Wnt3A that induced cardiac and neural anomalies were 2 ng/ml and 10 ng/ml, respectively. Using these concentrations, the inventors analyzed whether FA supplementation of media at 10^3-fold higher concentrations, that is 2 μg/ml or 10 μg/ml, would provide protection against the augmentation of canonical Wnt3A signaling.

HTR-8/SVneo cells = assay: In vitro wound assay of human trophoblast cell migration; assay type: cell-based; conditions: HCy exposure experiments; scrape wound
Description: In previous studies by the inventors analyzing the effects of lithium and the metabolite homocysteine (HCy) on early heart development, the results were similar. Both factors inhibited Wnt/β-catenin-mediated gene expression during induction stages of cardiogenesis. […] Folate protects the embryo from these adverse effects (Han et al., 2009). It was also noted that normal placental development was adversely affected by Li and HCy. A human trophoblast cell line, HTR-8/SVneo cells, was used to determine whether Li or HCy affect the migration of these cells in vitro and whether FA or FA/myo-inositol would protect the cells from adverse effects of the two cardiac teratogens. HCy exposure experiments were conducted. […] The wound edges are depicted by a white line in B. In panel A, it can be seen that the wound area is smaller. Administration of a combination of FA/myo-inositol, FA alone or myo-inositol alone, enhanced the expression of NMHC-IIB and FN to facilitate cell migration.

[3] = system: Hex and Islet-1 (Isl1) gene expression; assay: In situ hybridization of Hex and Isl1 in avian heart fields after Li, HCy or Wnt3A with or without FA; assay type: in vivo, chick; conditions: 8 hours of exposure; HH stages 3+/4
Procedure: In situ hybridizations on control and experimentally manipulated chick embryos were carried out using digoxigenin-labeled riboprobes with alkaline phosphatase detection (Linask et al., 2001). Images of whole-mounted chick embryos were taken with a Nikon DS-L2 camera unit. Probes for chick Hex were provided by Parker Antin, University of Arizona and probes for chick Islet-1 (Isl1) were provided by Thomas Jessell, Columbia University, NY.
Chick embryos (HH stages 3+/4) were incubated on agarose albumin supplemented with HCy (50 μM). Instead of giving a single injection in ovo, embryos were exposed to HCy for 8 hours in order to define the effect on early cardiac gene expression. Another group of embryos were exposed to HCy for 24 hours at which time the effects on gene expression were determined. To analyze the effects during the looping stages, incubation was stopped after between 22 and 24 hours. After the 8-hour incubation, Li and HCy suppressed Hex and Isl1 expression in the cardiogenic crescent (FIG. 5).
The inventors next analyzed whether FA rescues the downregulation of Hex and Isl1. Chick embryos were exposed to Li, HCy or Wnt3A, as above, with and without 10 μg/ml of FA; the experiments were terminated after either an 8-hour or 24-hour exposure period, at which time in situ hybridizations for gene expression were performed. After 8 hours of exposure, Li, HCy and Wnt3A all suppressed Hex (FIGS. 9D, G, J) and Isl1 (FIGS. 10D, G, J) compared with the control embryonic expression patterns (FIG. 9A; FIG. 10A). […] Thus, FA supplementation suppressed the potentiation of the inhibitory Wnt signaling, allowing for normal induction of Hex and Isl1 gene expression.

[4] = 30% EtOH 2.9 g/Kg twice i.p. on E6.75
[5] = 30% EtOH 3.5 g/Kg once i.p. on E6.75
[6] = HH stage 3 +/4, HCy 50 μM, Li 50 μM, FA 10 μM, inositol 280 mM

CCO [EtOH, ethanol]
Hex and Isl-1 expression in the heart fields (Hex and Isl-1 expression): suppressed
Body Weight (C57BL/6 mouse embryos [1]; [4]): 0.37 g
CRL (C57BL/6 mouse embryos [1]; [4]): 12.63 min
Placenta Weight (C57BL/6 mouse embryos [1]; [4]): 0.10 g
Body Weight (C57BL/6 mouse embryos [1]; [5]): 0.35 g
CRL (C57BL/6 mouse embryos [1]; [5]): 11.40 min
Placenta Weight (C57BL/6 mouse embryos [1]; [5]): 0.09 g
embryos with cardiac valve anomalies (avian embryos; 25% and 30% EtOH, stage 4): 68%
embryos with normal heart development (avian embryos; 25% and 30% EtOH, stage 4, FA (10 mg/ml) concurrently, in vitro and in ovo): 32%
morphological defects (avian embryos; EtOH in vitro at HH stage 4): delayed growth and severe cardiac malformations
effects of 10% EtOH in ovo (avian embryos; quail eggs stage 4, microinjected into airspace): no adverse effects
teratogenic EtOH dose (avian embryos; stage 4 avian embryos): 25-30%
DAPI (C57BL/6 mouse embryos [2]): 1.73
DVPI (C57BL/6 mouse embryos [2]): 1.21
E/A Ratio (C57BL/6 mouse embryos [2]): 0.29
HR (C57BL/6 mouse embryos [2]): 205 bpm
ICT % (C57BL/6 mouse embryos [2]): 10.09%
IRT % (C57BL/6 mouse embryos [2]): 14.93%
MPI (C57BL/6 mouse embryos [2]): 0.62
OF (C57BL/6 mouse embryos [2]): 26.37 cm/s
RR (C57BL/6 mouse embryos [2]): 293 ms
UAPI (C57BL/6 mouse embryos [2]): 1.75
abnormalities after one i.p. injection of 3.5 g/kg (C57BL/6 mouse embryos [2]; ip): did not produce any abnormalities
outcome after one i.p. injection of 4.5 g/kg (C57BL/6 mouse embryos [2]; ip): cardiac abnormalities, but the pregnant mouse appeared sickly

O[C@H]1[C@H](O)[C@@H](O)[C@H](O)[C@@H](O)[C@H]1O [Inositol, myo-inositol]
% Normal Hearts (chick embryos; [6]): 60%
Abnormal (number of embryos) (chick embryos; [6]): 2
Normal (number of embryos) (chick embryos; [6]): 3
% Normal Hearts (chick embryos; HH stage 3 +/4, HCy 50 μM, Li 50 μM, FA 10 μM, inositol 280 mM, listed as Inositol only): 60%
expression of NMHC-IIB and FN (HTR-8/SVneo cells): enhanced

Wnt3A
Hex and Isl1 expression in the cardiogenic crescent [3]: suppressed
embryos with normal hearts / normal heart development (chick embryos; Wnt3A exposure at HH stages 3+/4, Wnt 2 ng, FA 10 μg): 18%
minimal effective dose that induced cardiac anomalies (chick embryos; in vivo): 2 ng/mL
minimal effective dose that induced neural anomalies (chick embryos; in vivo): 10 ng/mL
